Assay results published in patent publication US20180221306A1, “PHARMACEUTICAL COMPOSITIONS OF 5-HYDROXY-2-METHYLNAPHTHALENE-1,4-DIONE” (PellFiCure Pharmaceuticals, Inc., priority 2016, published 2018).

Assay: Forced degradation: stability of Compound I formulations in selected solvents and Carrier A (HPLC)
[1] = EtOH, 25° C./60% RH, t = 2 week

For CC1=CC(=O)c2c(O)cccc2C1=O [Compound I, 5-hydroxy-2-methylnaphthalene-1,4-dione], the “Stability of the formulation in Carrier A (sesame oil), Purity” value (“Stability of the formulation” below) (Carrier A (NF: laboratory grade), t = 0, reported from a representative standard) was 99.7 Area - %, the “Stability of the formulation” value (Carrier A (SR), 25° C./60% RH, t = 3 day) was 99.5 Area - % and the “Stability of the formulation” value (Carrier A (SR), 25° C./60% RH, t = 10 day) was 99.5 Area - %. For the same compound, the “Stability of the formulation” value (Carrier A (SR), 40° C./75% RH, t = 3 day) was 99.3 Area - %, the “Stability of the formulation” value (Carrier A (SR), 40° C./75% RH, t = 10 day) was 99.3 Area - % and the “Stability of the formulation” value (Carrier A (SR: super refined grade), t = 0, reported from a representative standard) was 99.7 Area - %. For the same compound, the “Solution Stability in Selected Solvents, Purity” value (DCM, 25° C./60% RH, t = 0) was 92.84 % Area, the “Solution Stability in Selected Solvents, Purity” value (DCM, 25° C./60% RH, t = 1 week) was 93.85 % Area and the “Solution Stability in Selected Solvents, Purity” value (DCM, 25° C./60% RH, t = 2 week) was 92.99 % Area. The “Solution Stability in Selected Solvents, Purity” value (DCM, 40° C./75% RH, t = 1 week) was 91.88 % Area, the “Solution Stability in Selected Solvents, Purity” value (DCM, 40° C./75% RH, t = 2 week) was 81.23 % Area and the “Solution Stability in Selected Solvents, Purity” value (DMSO, 25° C./60% RH, t = 0) was 94.08 % Area. The “Solution Stability in Selected Solvents, Purity” value (DMSO, 25° C./60% RH, t = 1 week) was 93.47 % Area, the “Solution Stability in Selected Solvents, Purity” value (DMSO, 25° C./60% RH, t = 2 week) was 92.47 % Area and the “Solution Stability in Selected Solvents, Purity” value (DMSO, 40° C./75% RH, t = 1 week) was 89.28 % Area. For the same compound, the “Solution Stability in Selected Solvents, Purity” value (DMSO, 40° C./75% RH, t = 2 week) was 89.26 % Area, the “Solution Stability in Selected Solvents, Purity” value (Diluent, 25° C./60% RH, t = 0) was 99.77 % Area and the “Solution Stability in Selected Solvents, Purity” value (Diluent, 25° C./60% RH, t = 1 week) was 99.76 % Area. The “Solution Stability in Selected Solvents, Purity” value (Diluent, 25° C./60% RH, t = 2 week) was 99.79 % Area, the “Solution Stability in Selected Solvents, Purity” value (Diluent, 40° C./75% RH, t = 1 week) was 99.81 % Area and the “Solution Stability in Selected Solvents, Purity” value (Diluent, 40° C./75% RH, t = 2 week) was 99.82 % Area. The “Solution Stability in Selected Solvents, Purity” value (EA (poor chromatography observed with ethyl acetate), 25° C./60% RH, t = 0) was 80.16 % Area, the “Solution Stability in Selected Solvents, Purity” value (EA (poor chromatography), 25° C./60% RH, t = 1 week) was 77.38 % Area and the “Solution Stability in Selected Solvents, Purity” value (EA (poor chromatography), 25° C./60% RH, t = 2 week) was 76.03 % Area. For the same compound, the “Solution Stability in Selected Solvents, Purity” value (EA (poor chromatography), 40° C./75% RH, t = 1 week) was 77.28 % Area, the “Solution Stability in Selected Solvents, Purity” value (EA (poor chromatography), 40° C./75% RH, t = 2 week) was 77.13 % Area and the “Solution Stability in Selected Solvents, Purity” value (EtOH, 25° C./60% RH, t = 0) was 99.37 % Area. For the same compound, the “Solution Stability in Selected Solvents, Purity” value (EtOH, 25° C./60% RH, t = 1 week) was 96.08 % Area, the “Solution Stability in Selected Solvents, % Potency” value [1] was 93.35% and the “Solution Stability in Selected Solvents, Purity” value [1] was 92.82 % Area. For the same compound, the “Solution Stability in Selected Solvents, Purity” value (EtOH, 40° C./75% RH, t = 1 week) was 91.99 % Area, the “Solution Stability in Selected Solvents, Purity” value (EtOH, 40° C./75% RH, t = 2 week) was 89.39 % Area and the “Solution Stability in Selected Solvents, Purity” value (IPA, 25° C./60% RH, t = 0) was 98.80 % Area. The “Solution Stability in Selected Solvents, Purity” value (IPA, 25° C./60% RH, t = 1 week) was 95.62 % Area, the “Solution Stability in Selected Solvents, Purity” value (IPA, 25° C./60% RH, t = 2 week) was 93.35 % Area and the “Solution Stability in Selected Solvents, Purity” value (IPA, 40° C./75% RH, t = 1 week) was 91.10 % Area. For the same compound, the “Solution Stability in Selected Solvents, Purity” value (IPA, 40° C./75% RH, t = 2 week) was 89.40 % Area, the “Solution Stability in Selected Solvents, Purity” value (MeOH, 25° C./60% RH, t = 0) was 99.32 % Area and the “Solution Stability in Selected Solvents, Purity” value (MeOH, 25° C./60% RH, t = 1 week) was 95.54 % Area. The “Solution Stability in Selected Solvents, Purity” value (MeOH, 25° C./60% RH, t = 2 week) was 88.79 % Area, the “Solution Stability in Selected Solvents, Purity” value (MeOH, 40° C./75% RH, t = 1 week) was 86.56 % Area and the “Solution Stability in Selected Solvents, Purity” value (MeOH, 40° C./75% RH, t = 2 week) was 83.85 % Area. For the same compound, the “Solution Stability in Selected Solvents, Purity” value (PEG 300, 25° C./60% RH, t = 0) was 98.52 % Area, the “Solution Stability in Selected Solvents, Purity” value (PEG 300, 25° C./60% RH, t = 1 week) was 88.59 % Area and the “Solution Stability in Selected Solvents, Purity” value (PEG 300, 25° C./60% RH, t = 2 week) was 80.73 % Area. The “Solution Stability in Selected Solvents, Purity” value (PEG 300, 40° C./75% RH, t = 1 week) was 65.16 % Area, the “Solution Stability in Selected Solvents, Purity” value (PEG 300, 40° C./75% RH, t = 2 week) was 49.31 % Area and the “Solution Stability in Selected Solvents, Purity” value (PEG 400, 25° C./60% RH, t = 0) was 98.33 % Area. The “Solution Stability in Selected Solvents, Purity” value (PEG 400, 25° C./60% RH, t = 1 week) was 88.42 % Area, the “Solution Stability in Selected Solvents, Purity” value (PEG 400, 25° C./60% RH, t = 2 week) was 81.00 % Area and the “Solution Stability in Selected Solvents, Purity” value (PEG 400, 40° C./75% RH, t = 1 week) was 70.08 % Area. For the same compound, the “Solution Stability in Selected Solvents, Purity” value (PEG 400, 40° C./75% RH, t = 2 week) was 49.07 % Area, the “Solution Stability in Selected Solvents, Purity” value (PG, 25° C./60% RH, t = 0) was 99.65 % Area and the “Solution Stability in Selected Solvents, Purity” value (PG, 25° C./60% RH, t = 1 week) was 99.14 % Area. The “Solution Stability in Selected Solvents, Purity” value (PG, 25° C./60% RH, t = 2 week) was 97.81 % Area, the “Solution Stability in Selected Solvents, Purity” value (PG, 40° C./75% RH, t = 1 week) was 97.49 % Area and the “Solution Stability in Selected Solvents, Purity” value (PG, 40° C./75% RH, t = 2 week) was 96.43 % Area. For the same compound, the “Solution Stability in Selected Solvents, Purity” value (THF, 25° C./60% RH, t = 0) was 96.45 % Area, the “Solution Stability in Selected Solvents, Purity” value (THF, 25° C./60% RH, t = 1 week) was 94.19 % Area and the “Solution Stability in Selected Solvents, Purity” value (THF, 25° C./60% RH, t = 2 week) was 91.24 % Area. The “Solution Stability in Selected Solvents, Purity” value (THF, 40° C./75% RH, t = 1 week) was 92.54 % Area, the “Solution Stability in Selected Solvents, % Potency” value (THF, 40° C./75% RH, t = 2 week) was 99.82% and the “Solution Stability in Selected Solvents, Purity” value (THF, 40° C./75% RH, t = 2 week) was 89.34 % Area. The “Compound I lost” value (Tween-20 or Tween-80 surfactant formulations) was at least 50%.
